Patent US9861606B2, “Therapeutic for treating inflammatory lung disorders” (University College Cardiff Consultants Limited, priority 2012, dated 2018)

Tests used:
human CaSR = molecular target: T1, human CaSR (Homo sapiens, UniProt P41180); assay: Intracellular Ca2+ (fura-2, F/F0) in HEK293 cells stably expressing human CaSR; format: cell-based; conditions: HEK-CaSR; for CaSR activation (Ca2+i increase) by agonist: 300 nM poly-L-arginine, 1 mM spermine, 10 μg/ml ECP, no response in HEK-0
T1 construct: expressed in transfected cells; control HEK-0 with empty vector
T1 sequence (P41180 20-1078): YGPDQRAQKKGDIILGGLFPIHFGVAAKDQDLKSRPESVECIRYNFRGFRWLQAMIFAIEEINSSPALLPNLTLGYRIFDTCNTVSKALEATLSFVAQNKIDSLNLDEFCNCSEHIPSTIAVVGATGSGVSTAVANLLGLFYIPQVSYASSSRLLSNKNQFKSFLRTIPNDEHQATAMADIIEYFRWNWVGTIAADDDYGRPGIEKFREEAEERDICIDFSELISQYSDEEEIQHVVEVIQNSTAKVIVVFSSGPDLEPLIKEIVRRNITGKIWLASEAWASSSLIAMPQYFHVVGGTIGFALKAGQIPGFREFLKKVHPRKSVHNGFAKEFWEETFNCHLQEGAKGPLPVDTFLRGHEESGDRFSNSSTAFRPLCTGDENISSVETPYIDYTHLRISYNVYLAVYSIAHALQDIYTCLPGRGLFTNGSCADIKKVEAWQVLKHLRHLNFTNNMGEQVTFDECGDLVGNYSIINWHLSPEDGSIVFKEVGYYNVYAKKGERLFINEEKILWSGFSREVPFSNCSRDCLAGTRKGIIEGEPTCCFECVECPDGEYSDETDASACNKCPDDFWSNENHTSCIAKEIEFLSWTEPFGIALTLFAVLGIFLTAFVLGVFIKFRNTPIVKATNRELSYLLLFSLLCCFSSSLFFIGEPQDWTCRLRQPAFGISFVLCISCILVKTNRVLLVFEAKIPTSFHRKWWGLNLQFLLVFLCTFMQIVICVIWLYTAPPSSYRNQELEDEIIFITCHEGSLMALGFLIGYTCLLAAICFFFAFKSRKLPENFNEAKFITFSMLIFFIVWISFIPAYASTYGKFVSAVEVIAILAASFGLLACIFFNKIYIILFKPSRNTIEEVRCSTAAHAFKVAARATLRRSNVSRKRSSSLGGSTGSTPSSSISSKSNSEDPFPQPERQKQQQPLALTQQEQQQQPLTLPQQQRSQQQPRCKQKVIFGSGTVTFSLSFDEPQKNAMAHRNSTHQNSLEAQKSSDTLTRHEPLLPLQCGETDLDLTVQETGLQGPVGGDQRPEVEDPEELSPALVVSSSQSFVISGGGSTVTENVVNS
Method: The structurally unrelated calcilytic NPS2143 also prevents spermine-induced CaSR activation (D). […] Note that ECP serum concentrations in asthmatic subjects are believed to be 30 μg/ml. n=121-487 cells, 3-9 experiments. Data are mean±SEM. Where differences are significant, they are shown above the bars. FIG. 6. Ca^2+o activates the CaSR, an effect which can be prevented by the calcilytic NPS89636. HEK293 cells stably expressing the human CaSR (HEK-CaSR) or transfected with empty vector (HEK-0) were loaded with 4 μM fura-2 AM and exposed to 5 mM Ca^2+o in the absence or presence of the calcilytic, NPS89636 (100 nM). Data are from >3 experiments and 121-386 cells. Significant differences are shown above the bars. […] The ability of a structurally unrelated calcilytic, NPS2143 (1-10 μM), was also tested on spermine-induced Ca^2+i mobilisation in HEK-CaSR. Ca^2+i release was measured as peak/baseline fluorescence (F/F0). Note that ECP serum concentrations in asthmatic subjects increase with disease severity and are believed to reach 30 μg/ml.

CaSR in human ASM cells = molecular target: T2, CaSR in human ASM cells (Homo sapiens, UniProt P41180); assay: Intracellular Ca2+ signalling (Fura-2) in primary human airway smooth muscle cells; format: cell-based; conditions: spermine 0.1-3 mM; ECPs 1-10 micrograms/ml
T2 construct: endogenous in cells; host or cells: primary human airway smooth muscle cells explanted from bronchial biopsies
T2 sequence (P41180 20-1078): T1 sequence (P41180 20-1078)
Method: Human ASM cells, loaded with Fura-2 AM, show elevation of [Ca^2+]i (F/F0) when exposed to increased [Ca^2+]o (A, n=7) or spermine (B, n=35; mean±SEM). […] In the presence of 5 mM [Ca^2+]o (saturating for CaSR, see A), the response to ECP, but not to BK, is ablated, consistent with CaSR activation by ECP. D), transfection of a “dominant negative” CaSR (CaSR DN) prevents spermine-dependent increase in [Ca^2+]i in human ASM cells, an effect which cannot be seen in MOCK-transfected cells.
Effects of Polycations in Human ASM Cells In Vitro
Once primary human airway smooth muscle cells cell cultures were established at 80-90% confluence using the protocol described above, the endogenous CaSR was activated by exposing these cells to pathophysiologically relevant concentrations of ECPs (1-10 micrograms/ml), spermine (0.1-3 mM) and Ca^2+o (1-5 mM) to determine the effects on intracellular Ca^2+i signalling (using the Ca^2+-sensitive fluorescent dye, Fura-2).

[1] = tested on: mouse intralobular bronchi; conditions: 300 μM spermine, 15 min pre-treatment
Method: A. Intralobular bronchi were dissected from wild type C57/Bl6 mice (3-4 month of age), mounted upon a wire myograph and bubbled with 95% O2/5% CO2 in the presence of an extracellular solution containing 1 mM Ca^2+o. […] Data are mean±SEM, n=3. B. Intralobular bronchi were dissected from wild type (sm22α-Cre^−/−/floxed-CaSR^+/+) and CaSR knockout (sm22α-Cre^+/+/floxed-CaSR^+/+) mice and were then mounted on a wire myograph, as described in (A). […] Percentage of contraction (upwards deflection from zero of the relaxation curve) or relaxation (downwards deflection from zero of the relaxation curve) were calculated from the tension data. Data are mean±SEM, n=3 per genotype. […] Second/third order intralobular bronchi were dissected from the lung left lobes of WT or KO mice, mounted in small vessel myograph using stainless steel wires (d=40 micrometers) and maintained in a Krebs solution bubbled with 95% O2/5% CO2. Bronchi were left to settle at 37° C. for 30 min, then they were gradually stretched to reach 2 mN of passive tension. After 30 min equilibration time, reactivity of the bronchi was tested by addition of 40 mM KCl to the bath. […] Data are shown as mean±SEM percentage of contraction normalized to the maximal contraction in control. […] Bronchi were left to settle at 37° C. for 30 min, then they were gradually stretched to reach 2 mN of passive tension. […]

[2] = tested on: mouse intralobular bronchi; conditions: spermine 10 μM-3 mM cumulative, ACh-precontracted to ~50% tone
Method: A. Intralobular bronchi were dissected from wild type C57/Bl6 mice (3-4 month of age), mounted upon a wire myograph and bubbled with 95% O2/5% CO2 in the presence of an extracellular solution containing 1 mM Ca^2+o. […] Data are mean±SEM, n=3. B. Intralobular bronchi were dissected from wild type (sm22α-Cre^−/−/floxed-CaSR^+/+) and CaSR knockout (sm22α-Cre^+/+/floxed-CaSR^+/+) mice and were then mounted on a wire myograph, as described in (A). […] Percentage of contraction (upwards deflection from zero of the relaxation curve) or relaxation (downwards deflection from zero of the relaxation curve) were calculated from the tension data. Data are mean±SEM, n=3 per genotype. […] Second/third order intralobular bronchi were dissected from the lung left lobe of WT or CaSR KO mice, mounted in small vessel myograph using stainless steel wires (d=40 micrometers) in a Krebs' solution bubbled with 95% O2/5% CO2. Bronchi were left to settle at 37° C. for 30 min, then gradually stretched to reach 2 mN of passive tension. After 30 min of equilibration time, the reactivity of the bronchi was tested by addition of 40 mM KCl to the bath. […] Data are shown as mean±SEM percentage change from baseline, where upwards deflection from zero represents contraction, whilst downwards deflection from zero of the relaxation curve represents relaxation. […] WT: n=6; KO: n=7. *p<0.05; **p<0.01.

BalbC mice = assay: Polycation-induced bronchial hyper-reactivity (Penh, plethysmography) in methacholine-challenged conscious mice; format: in vivo, mouse; conditions: nebulised poly-L-arginine 3 μM, 1 hour; conscious BalbC mice
Method: FIG. 5. […] prevent polycation-evoked BHR in methacholine-challenged mice. […] After the treatment, animals were placed in plethysmography chambers (Buxco, USA), allowed to settle for 10 minutes, and then they were challenged with methacholine (MCh, 0.1-10 mg/ml). Responses to methacholine obtained from the animals that have not received any treatments are shown in black symbols. From our previous estimates, 1-5% of the nebulised drug reaches the lung epithelium. […] FIG. 12. […] Male BalbC mice ( 25 g) were purchased from Harlan 1 week before the experimental protocols were performed. […] On the day of the experiment, the body weight of each mouse was recorded and mice were allowed to acclimatise to the chamber for at least 10 min before recordings were made. Then, respiratory activity was recorded for 5 min, to establish baseline value for Penh. […] Data were recorded for 3 minutes after each aerosol administration. The Penh values at each MCh concentration were averaged and expressed as a proportion of baseline Penh (Penh before treatment). […] The Penh values at each MCh concentration were averaged and expressed as a proportion of that day's baseline Penh (Penh after treatment). […] Effect of Polycations and of the Calcilytic NPS89636 on Bronchial Hyper-Reactivity in Unrestrained, Conscious Mice In Vivo Baseline airway hyper-responsiveness was measured by plethysmography. […]

CC(C)(Cc1ccc2ccccc2c1)NC[C@@H](O)COc1cccc(Cl)c1C#N.Cl [NPS2143, reference compound]
Effect of calcilytic on spermine-induced CaSR activation (Ca2+i mobilisation) (human CaSR; 1-10 μM calcilytic): prevented CaSR activation by spermine

NCCCNCCCCNCCCN [spermine]
CaSR activation (Ca2+i increase) by agonist (human CaSR): responds | Increase in Ca2+i evoked by agonist in human ASM cells (CaSR in human ASM cells): evoke increases in Ca^2+i | Effect on ACh-induced contraction, CaSR KO bronchi ([1]; CaSR knock-out mice): not seen | Effect on ACh-induced contraction, WT bronchi ([1]; wild-type mice): increases the response to acetylcholine-mediated contraction | Direct bronchoconstriction, CaSR KO bronchi ([2]; knock-out mice): not in the intralobular bronchi of knock-out mice | Direct bronchoconstriction, WT bronchi ([2]; wild-type mice): directly evokes bronchoconstriction

poly-L-arginine [reference compound]
CaSR activation (Ca2+i increase) by agonist (human CaSR): responds | Effect on response to methacholine (Penh) (BalbC mice): significantly enhanced

B1: ECPs: eosinophil cationic protein, novel agonist at the human CaSR (protein, UniProt P12724 28-160, looked up)
Eosinophil cationic protein: RPPQFTRAQWFAIQHISLNPPRCTIAMRAINNYRWRCKNQNTFLRTTFANVVNVCGNQSIRCPHNRTLNNCHRSRFRVPLLHCDLINPGAQNISNCTYADRPGRRFYVVACDNRDPRDSPRYPVVPVHLDTTI
CaSR activation (Ca2+i increase) by agonist (human CaSR): agonists at the CaSR | Increase in Ca2+i evoked by agonist in human ASM cells (CaSR in human ASM cells): evoke increases in Ca^2+i
